Tests used:
[1] = tested on: spontaneously hypertensive rats; experiment: Hypotensive activity (systolic blood pressure, indirect tail cuff method); format: in vivo; settings: Rattus norvegicus; oral; before and at 1, 3, 5 and 7 hours; five male spontaneously hypertensive rats; from dose response curve; read-out: ED30 (effective dose which showed the maximum hypotension by 30 mmHg)
Description: Five male spontaneously hypertensive rats were used for each experiment. Systolic blood pressure was determined using an indirect tail cuff method before and at 1, 3, 5 and 7 hours following the oral administration of the test compound.

[2] = tested on: vertebral blood flow (right vertebral artery); experiment: Effect on vertebral blood flow; format: in vivo, mongrel dogs; settings: anesthetized dogs; for ED100 (effective dose in blood flow): injected into afferent tube, increase in blood flow by papaverine 100 μg taken as 100%; for Duration (time for which the half maximum response remained): vertebral blood flow
Description: Under the artificial ventilation, the right vertebral artery was perfused with the arterial blood from the left carotid artery through a short bypass. The perfused flow was measured by means of an electromagnetic flow-meter. The test compound was dissolved in an aqueous solution containing 0.1% dimethyl sulfoxide and 0.01% polyoxyethylene hydrogenated castor oil (cremophor EL®), and injected into the afferent tube. […] The duration was measured as the time for which the half maximum response remained.

[3] = tested on: coronary blood flow (left coronary artery); experiment: Effect on coronary blood flow; format: in vivo, mongrel dogs; settings: anesthetized dogs; for ED50 (effective dose in blood flow): injected into afferent cannula, increase in blood flow by nifedipine 10 μg taken as 100%; for Duration (time for which the half maximum response remained): coronary blood flow
Description: The perfused flow was measured by means of an electromagnitic flow-meter. The test compound was dissolved in an aqueous solution containing 15% ethanol and 15% polyethylene glycol, and injected into the afferent cannula. […] The duration was measured as the time for which the half maximum response remained.

| Structure (SMILES) | ED (30 mmHg) [1] | ED100 (effective dose in blood flow) [2] | Duration (time for which the half maximum response remained) [2] | ED50 (effective dose in blood flow) [3] | Duration (time for which the half maximum response remained) [3] |
| --- | --- | --- | --- | --- | --- |
| COC(=O)C1=C(C)NC(C)=C(C(=O)OC(CN(C)Cc2ccccc2)c2cccs2)C1c1cccc([N+](=O)[O-])c1.Cl (stereo not drawn) [Test Compound B, 2,6-Dimethyl-4-(m-nitrophenyl)-1,4-dihydropyridine-3,5-dicarboxylic acid-3-methylester-5-[2-(N-benzyl-N-methylamino)-1-(2-thienyl)ethyl]ester hydrochloride] | 1 mg/kg | 1.8 µg | 22.5 min |  |  |
| COC(=O)C1=C(C)NC(C)=C(C(=O)OCCN(C)Cc2ccccc2)C1c1cccc([N+](=O)[O-])c1.Cl (stereo not drawn) [Nicardipine, 2,6-Dimethyl-4-(m-nitrophenyl)-1,4-dihydropyridine-3,5-dicarboxylic acid-3-methylester-5-[2-(N-benzyl-N-methylamino)ethyl]ester hydrochloride, reference compound] | 5 mg/kg | 0.4 µg | 1.0 min | 0.5 µg | 3.0 min |
| COC(=O)C1=C(C)NC(C)=C(C(=O)OC)C1c1ccccc1[N+](=O)[O-] [Nifedipine] |  |  |  | 0.5 µg |  |
| COC(=O)C1=C(C)NC(C)=C(C(=O)OC(CN(C)Cc2ccccc2)c2ccco2)C1c1cccc([N+](=O)[O-])c1.Cl (stereo not drawn) [Test Compound A, 2,6-Dimethyl-4-(m-nitrophenyl)-1,4-dihydropyridine-3,5-dicarboxylic acid-3-methylester-5-[2-(N-benzyl-N-methylamino)-1-(2-furyl)ethyl]ester hydrochloride] | 1.3 mg/kg | 1.0 µg | 11.0 min | 1.5 µg | 15.0 min |
| COc1ccc(Cc2nccc3cc(OC)c(OC)cc23)cc1OC [Papaverine, reference compound] |  | 100 µg |  |  |  |

— patent US4450165A, “Dihydropyridine compounds” (Yoshitomi Pharmaceutical Industries, Ltd., priority 1981, dated 1984)
